Measured values reported in ChEMBL document CHEMBL5380830, “Development and Therapeutic Implications of Tyrosine Kinase 2 Inhibitors” (J Med Chem, 2023).
Each block holds one compound with its values, some of them ahead of it.

Key:
[1] = target: T1, Non-receptor tyrosine-protein kinase TYK2 (Homo sapiens, UniProt P29597); experiment: Inhibition of TYK2 JH2 (unknown origin)
[2] = target: T1, Non-receptor tyrosine-protein kinase TYK2; experiment: Inhibition of TYK2 JH1 (unknown origin)
[3] = target: T2, Tyrosine-protein kinase JAK1 (Homo sapiens, UniProt P23458); experiment: Inhibition of JAK1 (unknown origin)
T2 sequence (P23458 whole entry): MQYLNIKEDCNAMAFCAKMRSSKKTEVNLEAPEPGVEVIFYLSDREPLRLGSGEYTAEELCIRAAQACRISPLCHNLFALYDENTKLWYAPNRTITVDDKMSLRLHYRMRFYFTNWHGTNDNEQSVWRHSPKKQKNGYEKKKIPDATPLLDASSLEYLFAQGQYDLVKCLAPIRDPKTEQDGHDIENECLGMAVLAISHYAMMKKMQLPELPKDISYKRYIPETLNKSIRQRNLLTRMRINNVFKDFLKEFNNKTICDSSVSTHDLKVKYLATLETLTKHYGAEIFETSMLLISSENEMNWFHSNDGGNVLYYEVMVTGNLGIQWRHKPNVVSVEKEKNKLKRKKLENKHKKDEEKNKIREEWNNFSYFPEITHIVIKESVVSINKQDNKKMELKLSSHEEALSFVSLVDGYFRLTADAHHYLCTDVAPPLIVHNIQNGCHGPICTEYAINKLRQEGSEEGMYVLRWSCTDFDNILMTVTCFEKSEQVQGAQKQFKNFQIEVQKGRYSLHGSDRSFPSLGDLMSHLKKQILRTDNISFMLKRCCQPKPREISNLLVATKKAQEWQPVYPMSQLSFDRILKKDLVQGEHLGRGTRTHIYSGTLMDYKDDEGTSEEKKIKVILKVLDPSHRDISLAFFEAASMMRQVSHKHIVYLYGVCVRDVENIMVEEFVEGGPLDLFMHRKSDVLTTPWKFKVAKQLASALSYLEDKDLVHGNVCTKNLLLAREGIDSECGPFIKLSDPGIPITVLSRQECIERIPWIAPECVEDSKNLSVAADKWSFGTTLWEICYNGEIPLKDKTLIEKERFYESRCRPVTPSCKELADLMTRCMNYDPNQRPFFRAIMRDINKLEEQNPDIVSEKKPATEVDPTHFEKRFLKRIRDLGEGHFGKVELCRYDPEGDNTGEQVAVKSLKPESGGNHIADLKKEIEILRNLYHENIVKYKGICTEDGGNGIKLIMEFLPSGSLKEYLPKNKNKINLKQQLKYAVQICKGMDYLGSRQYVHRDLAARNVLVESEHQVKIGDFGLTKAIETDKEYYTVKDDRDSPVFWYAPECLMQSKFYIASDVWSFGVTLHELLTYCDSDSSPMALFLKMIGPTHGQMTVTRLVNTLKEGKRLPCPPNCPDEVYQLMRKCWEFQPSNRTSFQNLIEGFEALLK

[4] = target: T3, Tyrosine-protein kinase JAK2 (Homo sapiens, UniProt O60674); experiment: Inhibition of JAK2 (unknown origin)
T3 sequence (O60674 whole entry): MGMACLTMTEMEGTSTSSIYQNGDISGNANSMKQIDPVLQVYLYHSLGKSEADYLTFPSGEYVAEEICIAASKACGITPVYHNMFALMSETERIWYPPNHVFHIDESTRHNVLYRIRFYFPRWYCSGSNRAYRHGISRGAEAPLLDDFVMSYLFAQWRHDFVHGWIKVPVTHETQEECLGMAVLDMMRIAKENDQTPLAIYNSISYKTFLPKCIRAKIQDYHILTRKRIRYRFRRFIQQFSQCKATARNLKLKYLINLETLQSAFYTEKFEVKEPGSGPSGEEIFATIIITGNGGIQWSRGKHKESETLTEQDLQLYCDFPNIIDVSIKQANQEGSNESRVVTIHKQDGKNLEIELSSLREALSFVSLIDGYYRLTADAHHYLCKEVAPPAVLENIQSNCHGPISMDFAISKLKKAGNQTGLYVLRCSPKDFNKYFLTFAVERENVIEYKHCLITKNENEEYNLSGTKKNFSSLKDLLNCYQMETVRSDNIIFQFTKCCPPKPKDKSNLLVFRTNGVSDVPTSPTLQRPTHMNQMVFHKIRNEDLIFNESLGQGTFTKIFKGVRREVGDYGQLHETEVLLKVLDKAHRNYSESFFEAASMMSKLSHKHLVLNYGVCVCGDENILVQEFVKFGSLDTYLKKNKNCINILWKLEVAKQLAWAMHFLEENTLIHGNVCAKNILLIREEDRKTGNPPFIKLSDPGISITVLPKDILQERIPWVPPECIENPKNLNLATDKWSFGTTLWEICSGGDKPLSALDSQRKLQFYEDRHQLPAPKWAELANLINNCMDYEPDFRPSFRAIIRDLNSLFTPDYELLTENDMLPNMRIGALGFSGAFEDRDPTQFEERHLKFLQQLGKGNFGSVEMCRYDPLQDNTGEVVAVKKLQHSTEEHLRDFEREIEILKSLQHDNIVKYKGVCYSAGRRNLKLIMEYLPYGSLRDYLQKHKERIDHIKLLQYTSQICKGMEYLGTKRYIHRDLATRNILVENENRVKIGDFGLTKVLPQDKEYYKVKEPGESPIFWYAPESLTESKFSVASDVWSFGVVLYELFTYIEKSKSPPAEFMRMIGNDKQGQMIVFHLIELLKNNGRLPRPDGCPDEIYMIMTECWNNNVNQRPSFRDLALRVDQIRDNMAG

[5] = target: T4, Tyrosine-protein kinase JAK3 (Homo sapiens, UniProt P52333); experiment: Inhibition of JAK3 (unknown origin)
T4 sequence (P52333 whole entry): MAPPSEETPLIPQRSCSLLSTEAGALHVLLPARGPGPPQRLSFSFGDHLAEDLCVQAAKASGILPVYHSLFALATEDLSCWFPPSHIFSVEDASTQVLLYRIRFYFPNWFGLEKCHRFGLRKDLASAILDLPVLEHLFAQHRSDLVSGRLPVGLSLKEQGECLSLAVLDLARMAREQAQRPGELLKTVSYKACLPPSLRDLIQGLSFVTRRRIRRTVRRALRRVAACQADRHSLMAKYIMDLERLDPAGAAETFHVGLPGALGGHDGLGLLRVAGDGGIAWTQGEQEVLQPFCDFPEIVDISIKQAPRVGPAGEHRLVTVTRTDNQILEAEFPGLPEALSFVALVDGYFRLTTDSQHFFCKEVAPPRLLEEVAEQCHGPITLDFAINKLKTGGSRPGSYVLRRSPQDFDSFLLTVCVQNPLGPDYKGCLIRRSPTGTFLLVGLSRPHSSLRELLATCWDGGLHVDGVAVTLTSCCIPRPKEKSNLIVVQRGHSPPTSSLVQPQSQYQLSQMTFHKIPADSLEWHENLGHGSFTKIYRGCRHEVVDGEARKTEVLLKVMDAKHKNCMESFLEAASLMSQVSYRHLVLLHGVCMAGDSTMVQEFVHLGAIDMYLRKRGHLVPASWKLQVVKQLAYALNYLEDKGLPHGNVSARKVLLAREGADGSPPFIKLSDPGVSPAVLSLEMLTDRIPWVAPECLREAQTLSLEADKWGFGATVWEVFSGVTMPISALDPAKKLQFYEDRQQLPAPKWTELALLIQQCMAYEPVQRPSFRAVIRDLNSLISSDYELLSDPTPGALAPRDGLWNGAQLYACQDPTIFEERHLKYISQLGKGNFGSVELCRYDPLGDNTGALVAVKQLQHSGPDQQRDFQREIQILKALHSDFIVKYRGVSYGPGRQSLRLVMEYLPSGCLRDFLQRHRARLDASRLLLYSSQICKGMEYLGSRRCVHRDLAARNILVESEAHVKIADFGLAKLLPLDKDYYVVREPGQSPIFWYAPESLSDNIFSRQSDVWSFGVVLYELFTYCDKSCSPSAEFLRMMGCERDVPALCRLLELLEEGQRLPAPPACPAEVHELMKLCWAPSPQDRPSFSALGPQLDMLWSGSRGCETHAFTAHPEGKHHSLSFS

[6] = Cmax in C57BL/6 mouse at 10 mg/kg, po by LC/MS-MS analysis; type: ADME, organism-based; parameters: dose 10 mg/kg, route po; conditions: in vivo
[7] = AUC in C57BL/6 mouse at 10 mg/kg, po by LC/MS-MS analysis; type: ADME, organism-based; parameters: dose 10 mg/kg, route po; conditions: in vivo
[8] = target: T2, Tyrosine-protein kinase JAK1; experiment: Inhibition of JAK1 (unknown origin) using ULight - JAK (Tyr1023) substrate incubated for 60 mins in presence of ATP by envision plate reader based analysis
[9] = target: T4, Tyrosine-protein kinase JAK3; experiment: Inhibition of JAK3 (unknown origin) using ULight - JAK (Tyr1023) substrate incubated for 60 mins in presence of ATP by envision plate reader based analysis
[10] = target: T1, Non-receptor tyrosine-protein kinase TYK2; experiment: Binding affinity to TYK2 JH2 (unknown origin)
[11] = target: T1, Non-receptor tyrosine-protein kinase TYK2; experiment: Inhibition of TYK2 signal transduction pathway in human PBMC cells assessed as IFNalpha induced p-STAT5 level; type: cell-based
[12] = Half life in C57BL/6 mouse at 10 mg/kg, po by LC/MS-MS analysis; type: ADME, organism-based; conditions: in vivo
[13] = Oral bioavailability in C57BL/6 mouse at 10 mg/kg by LC/MS-MS analysis; type: ADME, organism-based; conditions: in vivo
[14] = target: T1, Non-receptor tyrosine-protein kinase TYK2; experiment: Binding affinity to His-tagged human recombinant TYK2 JH2 (556 to 871 residues) incubated for 10 hrs by microplate reader based analysis
[15] = target: T5, JAK2/TYK2 (Homo sapiens, UniProt O60674+P29597); experiment: Inhibition of JAK2/TYK2 signal transduction pathway in human PBMC cells assessed as IL-23 induced p-STAT4 level by AlphaLISA assay; type: cell-based
T5 sequence (O60674 whole entry): as the sequence (O60674 whole entry) above
T5 sequence (P29597 whole entry): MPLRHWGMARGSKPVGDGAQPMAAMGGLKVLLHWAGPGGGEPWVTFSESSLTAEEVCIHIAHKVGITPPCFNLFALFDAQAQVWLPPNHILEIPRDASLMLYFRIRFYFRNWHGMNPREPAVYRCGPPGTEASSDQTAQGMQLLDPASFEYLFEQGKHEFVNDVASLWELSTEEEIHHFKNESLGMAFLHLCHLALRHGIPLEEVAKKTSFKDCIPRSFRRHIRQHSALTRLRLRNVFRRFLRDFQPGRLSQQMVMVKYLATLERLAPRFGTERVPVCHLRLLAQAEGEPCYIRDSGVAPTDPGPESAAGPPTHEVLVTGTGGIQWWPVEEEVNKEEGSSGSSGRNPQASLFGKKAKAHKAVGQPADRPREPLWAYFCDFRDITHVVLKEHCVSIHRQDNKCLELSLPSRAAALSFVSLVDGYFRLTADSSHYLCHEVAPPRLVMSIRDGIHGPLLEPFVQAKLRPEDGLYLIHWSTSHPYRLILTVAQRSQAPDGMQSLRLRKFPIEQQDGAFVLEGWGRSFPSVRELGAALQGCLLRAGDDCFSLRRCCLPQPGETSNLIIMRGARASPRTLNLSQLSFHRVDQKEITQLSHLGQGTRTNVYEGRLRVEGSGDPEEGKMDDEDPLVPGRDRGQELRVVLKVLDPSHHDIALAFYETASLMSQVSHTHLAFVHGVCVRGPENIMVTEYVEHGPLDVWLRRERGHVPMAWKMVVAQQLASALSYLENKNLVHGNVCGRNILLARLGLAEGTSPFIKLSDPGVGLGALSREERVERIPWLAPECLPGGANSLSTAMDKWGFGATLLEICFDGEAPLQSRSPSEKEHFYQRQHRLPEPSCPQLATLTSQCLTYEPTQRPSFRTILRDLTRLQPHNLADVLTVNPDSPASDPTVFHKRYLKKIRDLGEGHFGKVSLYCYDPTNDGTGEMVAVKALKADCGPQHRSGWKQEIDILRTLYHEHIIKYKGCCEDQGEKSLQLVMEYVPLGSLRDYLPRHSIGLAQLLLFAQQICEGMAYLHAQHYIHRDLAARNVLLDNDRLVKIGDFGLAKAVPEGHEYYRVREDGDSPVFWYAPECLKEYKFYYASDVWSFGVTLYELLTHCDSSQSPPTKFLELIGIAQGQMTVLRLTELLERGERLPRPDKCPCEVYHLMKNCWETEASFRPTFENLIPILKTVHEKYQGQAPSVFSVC

[16] = target: T5, JAK2/TYK2; experiment: Inhibition of JAK2/TYK2 signal transduction pathway in human PBMC cells assessed as IL-12 induced p-STAT4 level by AlphaLISA assay; type: cell-based
[17] = Inhibition of IL-23 induced STAT phosphorylation in HEK293 cells by Western blotting analysis; type: cell-based; conditions: Homo sapiens
[18] = Inhibition of IFNalpha induced STAT phosphorylation in HEK293 cells by Western blotting analysis; type: cell-based; conditions: Homo sapiens
[19] = target: Janus Kinase (JAK) (Homo sapiens, UniProt P52333+P23458+O60674+P29597); experiment: Inhibition of JAK JH1 (unknown origin); type: protein assay
[20] = Inhibition of IL-2 induced STAT phosphorylation in HEK293 cells by Western blotting analysis; type: cell-based; conditions: Homo sapiens
[21] = Inhibition of IFN-gamma induced STAT phosphorylation in HEK293 cells by Western blotting analysis; type: cell-based; conditions: Homo sapiens
[22] = Metabolic stability in human liver microsomes assessed as compound remaining after 60 mins; type: ADME, Microsome; conditions: read-out: Stability
[23] = Half life in ICR mouse at 30 mg/kg, IG by LC/MS/MS analysis; type: ADME, organism-based; conditions: in vivo, po
[24] = Cmax in ICR mouse at 30 mg/kg, IG by LC/MS/MS analysis; type: ADME, organism-based; parameters: dose 30 mg/kg, route ig; conditions: in vivo, po
[25] = target: JAK1/TYK2 (Homo sapiens, UniProt P23458+P29597); experiment: Inhibition of JAK2/TYK2 in HEK293T cells co-expressing luciferase gene under control of ISRE assessed as reduction in IFNalpha expression incubated for 6 hrs by one-glo reagent based luciferase reporter gene assay; type: cell-based
Sequence of JAK1/TYK2 (P23458 whole entry): as the sequence (P23458 whole entry) above
Sequence of JAK1/TYK2 (P29597 whole entry): as the sequence (P29597 whole entry) above

[26] = target: T5, JAK2/TYK2; experiment: Inhibition of JAK2/TYK2 in HEK-Blue IL-23 cells assessed as reduction in SEAP reporter gene expression incubated for 21 hrs by Quanti-blue assay; type: cell-based
[27] = target: T3, Tyrosine-protein kinase JAK2; experiment: Inhibition of JAK2 in human TF-1 cells assessed as reduction of STAT5 phosphorylation by ELISA assay; type: cell-based
[28] = target: T1, Non-receptor tyrosine-protein kinase TYK2; experiment: Inhibition of TYK2 in HEK-Blue IL-23 cells assessed as reduction in SEAP reporter gene expression by Quanti-blue assay; type: cell-based
[29] = target: T1, Non-receptor tyrosine-protein kinase TYK2; experiment: Inhibition of TYK2 JH2 (561 to 860 residues) (unknown origin) by HTRF assay
[30] = target: T2, Tyrosine-protein kinase JAK1; experiment: Inhibition of JAK1 JH2 (unknown origin)
[31] = target: T5, JAK2/TYK2; experiment: Inhibition of JAK2/TYK2 signal transduction pathway in human NK92 cells assessed as IL-12 induced STAT4 phosphorylation; type: cell-based
[32] = target: T1, Non-receptor tyrosine-protein kinase TYK2; experiment: Inhibition of TYK2 signal transduction pathway in human TF-1 cells assessed as reduction in GM-CSF induced p-STAT5 level; type: cell-based

T1 sequence (P29597 whole entry): as above

IC50 [1]: 2.1 nM | IC50 [2]: > 10000 nM | IC50 [3]: > 10000 nM | IC50 [4]: > 10000 nM | IC50 [5]: > 10000 nM | Cmax [6]: 2740 ng/mL | AUC [7]: 16600 ng·h/mL
Compound: CO[C@@]1(c2cc(C)cc(-n3cc(C4CCN(C)CC4)c4cnc(NC(N)=O)cc43)n2)CCOC1

IC50 [8]: > 5000 nM | IC50 [9]: > 5000 nM
Compound: Cn1cc(-c2cn3ncnc3c(-c3ccn([C@]4(CC#N)C[C@@H](C#N)C4)c3)n2)cn1

Kd [10]: < 1 nM | IC50 [11]: ≤ 50 nM | IC50 [2]: > 10000 nM | IC50 [3]: > 10000 nM | IC50 [4]: > 10000 nM | IC50 [5]: > 10000 nM | half-life [12]: 3.01 h | bioavailability [13]: 147%
Compound: [2H]C([2H])([2H])NC(=O)c1nnc2cc1Nc1cc(cc(-c3ccn(C)n3)c1OC)CCOCc1cccc(n1)N2

Ki [14]: 2 nM | IC50 [15]: 2 nM | IC50 [16]: 8 nM
Compound: CO[C@@]1(c2cc(C)cc(-c3cc(C)n4cnc(NC(N)=O)cc34)n2)CCOC1

IC50 [17]: < 10000 nM | IC50 [18]: < 10000 nM | IC50 [19]: > 90000 nM | IC50 [20]: > 90000 nM | IC50 [21]: > 90000 nM
Compound: N#Cc1ccc(-n2[nH]c(=O)c3cnc(Nc4ccc(F)cn4)cc32)cc1Cl

remaining at 1 h [22]: 100% | half-life [23]: 6.26 h | Cmax [24]: 12500 ng/mL
Compound: [2H]C([2H])([2H])NC(=O)c1nnc(NC(=O)C2CC2)cc1Nc1cccc(-c2ncc(-c3cccnc3C(F)(F)F)cn2)c1OC

EC50 [25]: < 10 nM | EC50 [26]: < 1 nM | EC50 [27]: > 10000 nM
Compound: [2H]C([2H])([2H])Nc1cc(Nc2cc(Cl)cn(-c3ccccn3)c2=O)nn2c(C(=O)N[C@@H]3C[C@@H]3F)cnc12

IC50 [28]: < 1 nM
Compound: [2H]C([2H])([2H])NC(=O)c1nnc(NC(=O)C2CC2)cc1Nc1ncc(C2CC2)cc1S(C)(=O)=O

Compound: COCCOc1cc(Nc2cc(NC(C)=O)ncc2-c2ccccn2)nc(S(C)(=O)=O)c1
IC50 [29]: 0.018 nM | IC50 [30]: 1.2 nM | IC50 [31]: 1.21 nM | IC50 [32]: > 10000 nM

IC50 [17]: < 10000 nM | IC50 [18]: < 10000 nM | IC50 [19]: > 90000 nM | IC50 [20]: > 90000 nM | IC50 [21]: > 90000 nM
Compound: COc1cccc(-n2[nH]c(=O)c3cnc(Nc4cc(C)nc(C)n4)cc32)c1F

Kd [10]: < 1 nM | IC50 [11]: ≤ 50 nM | IC50 [2]: > 10000 nM | IC50 [3]: > 10000 nM | IC50 [4]: > 10000 nM | IC50 [5]: > 10000 nM | half-life [12]: 2.26 h | bioavailability [13]: 148%
Compound: CNC(=O)c1cnc2cc1Nc1cc(cc(-c3ccn(C)n3)c1OC)CCOCc1nc(ccc1C)N2

IC50 [1]: 0.6 nM | IC50 [2]: > 10000 nM | IC50 [4]: > 10000 nM | Cmax [6]: 2060 ng/mL | AUC [7]: 10900 ng·h/mL
Compound: CO[C@@]1(c2cc(C)cc(-n3cc(C4CC4)c4cnc(NC(C)=O)cc43)n2)CCOC1

Ki [14]: 2 nM | IC50 [15]: 3 nM | IC50 [16]: 9 nM
Compound: CO[C@@]1(c2cc(C)cc(-n3nc(-c4cnn(C)c4)c4cnc(NC(N)=O)cc43)n2)CCOC1
